Laboratory results taken from article PMC3992131 (Nature chemical biology, 2014).
Like-named read-outs stand apart in the source and are kept apart here. Where a SMILES comes first, the peptide text is derived from it. Bridges are numbered along the chain shown (N, C = ends). Where no end group is shown, it is not given here.

Columns and labels:
[1] = molecular target: FhuA (Escherichia coli) (UniProt P06971); test: ITC; settings: cited from earlier work
[2] = system: FhuA; settings: cited from earlier work
[3] = molecular target: T1, E. coli FhuA (Escherichia coli, UniProt P06971); test: biochemical; format: binding, Escherichia coli MG1655
T1 sequence (P06971 34-747): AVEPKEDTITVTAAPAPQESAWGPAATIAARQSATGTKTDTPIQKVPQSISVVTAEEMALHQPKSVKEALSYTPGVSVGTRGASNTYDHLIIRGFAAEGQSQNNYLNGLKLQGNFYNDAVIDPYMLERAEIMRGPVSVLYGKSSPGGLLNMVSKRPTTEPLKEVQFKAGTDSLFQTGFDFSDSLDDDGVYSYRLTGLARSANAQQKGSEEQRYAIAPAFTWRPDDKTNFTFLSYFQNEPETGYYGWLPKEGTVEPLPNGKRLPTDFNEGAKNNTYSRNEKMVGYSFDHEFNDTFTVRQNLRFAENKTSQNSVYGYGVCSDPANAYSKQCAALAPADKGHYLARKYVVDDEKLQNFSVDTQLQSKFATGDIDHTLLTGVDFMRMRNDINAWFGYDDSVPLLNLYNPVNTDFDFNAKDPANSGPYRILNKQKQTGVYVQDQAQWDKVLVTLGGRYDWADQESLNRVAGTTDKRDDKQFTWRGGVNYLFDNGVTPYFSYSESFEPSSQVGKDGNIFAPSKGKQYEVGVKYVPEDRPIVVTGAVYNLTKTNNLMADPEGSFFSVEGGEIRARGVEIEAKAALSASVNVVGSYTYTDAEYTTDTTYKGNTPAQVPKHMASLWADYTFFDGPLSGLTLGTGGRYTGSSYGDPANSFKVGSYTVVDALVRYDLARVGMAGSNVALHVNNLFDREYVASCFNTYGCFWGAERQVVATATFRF

[4] = system: Escherichia and Salmonella species; settings: cited from earlier work
[5] = system: Salmonella; settings: mouse model of infection by Salmonella; cited from earlier work
[6] = complex fluid matrices; cited from earlier work
[7] = system: E. coli RNA polymerase; settings: in vitro; cited from earlier work
[8] = system: E. coli W3110 wildtype and tonB− strains; test: tonB antibacterial assay; format: cell-based; settings: spot-on-lawn, 10 μL MccJ25 in MeOH (1-100 μg/mL), LB agar, 37°C overnight
[9] = system: human erythrocytes; settings: cited from earlier work
[10] = molecular target: FhuA from E. coli MG1655 with an internal His-tag (E. coli) (UniProt P06971); test: native MS

Molecule: MccJ25 (from UniProt Q9X2V7)
- Kd [1]: 1200 nM

Molecule: CO[C@H]1/C=C/O[C@@]2(C)Oc3c(C)c(O)c4c(O)c(cc(O)c4c3C2=O)NC(=O)/C(C)=C\C=C\[C@H](C)[C@H](O)[C@@H](C)[C@@H](O)[C@@H](C)[C@H](OC(C)=O)[C@@H]1C [rifamycin]
- transport by FhuA [2]: cannot efficiently transport

Molecule: t-MccJ25: MccJ25 hydrolyzed between Phe10 and Val11, obtained by incubation of MccJ25 in the presence of thermolysin (chain 1 GGAGHVPEYF; chain 2 VGIGTPISFYG; also: lactam at chain A 8 to a chain's N-terminus)
- binding to FhuA (result in words) [3]: absence of binding to FhuA

Molecule: CC[C@H](C)[C@H](NC(=O)CNC(=O)[C@@H](NC(=O)[C@H](Cc1ccccc1)NC(=O)[C@H](Cc1ccc(O)cc1)NC(=O)[C@@H]1CCC(=O)NCC(=O)NCC(=O)N[C@@H](C)C(=O)NCC(=O)N[C@@H](Cc2c[nH]cn2)C(=O)N[C@@H](C(C)C)C(=O)N2CCC[C@H]2C(=O)N1)C(C)C)C(=O)NCC(=O)N[C@H](C(=O)N1CCC[C@H]1C(=O)N[C@H](C(=O)N[C@@H](CO)C(=O)N[C@@H](Cc1ccccc1)C(=O)N[C@@H](Cc1ccc(O)cc1)C(=O)NCC(=O)O)[C@@H](C)CC)[C@@H](C)O [MccJ25, microcin J25] (GGAGHVPEYFVGIGTPISFYG-OH; lactam N-8; C-terminus assumed)
- antibacterial activity/spectrum [4]: potent antibacterial activity exclusively against Escherichia and some Salmonella species
- antibacterial activity/spectrum ([4]; through inhibition of RNA polymerase): potent, narrow spectrum antibacterial activity against Escherichia and Salmonella species
- antibacterial activity in vivo [5]: in vivo in a mouse model of infection by Salmonella
- antibacterial activity ex vivo [6]: has been demonstrated both ex vivo, in complex fluid matrices
- inhibition of E. coli RNA polymerase [7]: inhibit E. coli RNA polymerase with equal efficiency in vitro
- internalization dependence on TonB [8]: dependent on the FhuA-TonB system

Molecule: CC[C@H](C)[C@H](NC(=O)CNC(=O)[C@@H](NC(=O)[C@H](Cc1ccccc1)NC(=O)[C@H](Cc1ccc(O)cc1)NC(=O)[C@@H]1CCC(=O)NCC(=O)NCC(=O)N[C@@H](C)C(=O)NCC(=O)N[C@@H](Cc2cnc[nH]2)C(=O)N[C@@H](C(C)C)C(=O)N2CCC[C@H]2C(=O)N1)C(C)C)C(=O)NCC(=O)N[C@H](C(=O)N1CCC[C@H]1C(=O)N[C@H](C(=O)N[C@@H](CO)C(=O)N[C@@H](Cc1ccccc1)C(=O)N[C@@H](Cc1ccc(O)cc1)C(=O)NCC(=O)O)[C@@H](C)CC)[C@@H](C)O [MccJ25, microcin J25] (GGAGHVPEYFVGIGTPISFYG-OH; lactam N-8)
- Kd [3]: 980 ± 20 nM
- haemolytic activity [9]: without haemolytic activity on human erythrocytes

Molecule: MccJ25[His5Lys] (peptide)
- Kd [10]: 16900 nM

Molecule: CO[C@H]1/C=C/O[C@@]2(C)Oc3c(C)c(O)c4c(c3C2=O)C(=O)C(N2CCOCC2)=C(NC(=O)/C(C)=C\C=C\[C@H](C)[C@H](O)[C@@H](C)[C@@H](O)[C@@H](C)[C@H](OC(=O)CC(=O)OCC2CCCN(C)C2)[C@@H]1C)C4=O (stereo partly shown) [CGP 4832]
- transport by FhuA [2]: can transport
